We go through 27 compounds from patent publication US8716292B2, “Riminophenazines with 2-(heteroaryl)amino substituents and their anti-microbial activity” (priority 2010, dated 2014).

In brackets after ≈: the same amount, converted by molar mass.

The subject of one assay is Mycobacterium tuberculosis H37Rv strains. The experiment in a line: In vitro assay for antimicrobial susceptibility (microplate Alamar blue MIC). In kind it is cell-based. Conditions: Mycobacterium tuberculosis, H37RV, 7H9, Alamar blue, inhibition ≧90%; read-out: MIC (μg/mL) against H37Rv. Background: Resazurin is reduced to fluorescent resorufin, in cell work by metabolically active cells.
In the case of `COC1CCC(/N=c2\cc3n(-c4ccc(F)cc4)c4ccccc4nc-3cc2Nc2ncccc2C#N)CC1` (stereo not drawn) [TBI-1082, 5-(4-Fluorophenyl)-3-(4-methoxycyclohexyl)imino-2-(3-cyano-2-pyridyl)amino-3,5-dihydrophenazine], the MIC turned out to be 0.029 µg/mL (≈ 0.0559 µM).

Still in this assay, the particulars now being: Mycobacterium tuberculosis, H37RV, in vitro, Mycobacterium tuberculosis H37Rv strains; read-out: MIC (μg/mL) against H37Rv.
For the compound `COc1ncccc1Nc1cc2nc3ccccc3n(-c3ccc(C)cc3)c-2c/c1=N\C1CCC1` [TBI-344, 5-(4-Methylphenyl)-3-cyclobutylimino-2-(2-methoxy-3-pyridyl)amino-3,5-dihydrophenazine], the MIC is 0.04 µg/mL (≈ 0.0867 µM). As for `Cc1cncc(Nc2cc3nc4ccccc4n(-c4ccc(C(F)(F)F)cc4)c-3c/c2=N\C2CCC(O)CC2)c1` (stereo not drawn) [TBI-727, 5-(4-Trifluoromethylphenyl)-3-(4-hydroxycyclohexyl)imino-2-(5-methyl-3-pyridyl)amino-3,5-dihydrophenazine], the MIC came to 0.405 µg/mL (≈ 0.745 µM). With `Cc1cncc(Nc2cc3nc4ccccc4n(-c4ccc(F)cc4)c-3c/c2=N\C2CC2)c1` [TBI-1030, 5-(4-Fluorophenyl)-3-cyclopropylimino-2-(5-methyl-3-pyridyl)amino-3,5-dihydrophenazine], the MIC came to 0.012 µg/mL (≈ 0.0276 µM).

Consider `COc1ncccc1Nc1cc2nc3ccccc3n(-c3ccc(Cl)cc3)c-2c/c1=N\C1CCN(CC(C)C)CC1` [TBI-442, 5-(4-Chlorophenyl)-3-(N-isobutyl-4-piperidyl)imino-2-(2-methoxy-3-pyridyl)amino-3,5-dihydrophenazine], for which the MIC came out at 0.016 µg/mL (≈ 0.0282 µM). In the case of `CC(C)/N=c1\cc2n(-c3cccc(OC(F)(F)F)c3)c3ccccc3nc-2cc1Nc1cccnc1` [TBI-1019], the MIC is 0.057 µg/mL (≈ 0.116 µM). Consider `Cc1ccc(-n2c3c/c(=N\C4CCCCC4)c(Nc4cccnc4)cc-3nc3ccccc32)cc1` [TBI-333, 5-(4-Methylphenyl)-3-cyclohexylimino-2-(3-pyridyl)amino-3,5-dihydrophenazine], for which the MIC worked out at 0.061 µg/mL (≈ 0.133 µM). Take `COCC(COC)/N=c1\cc2n(-c3cccc(Cl)c3)c3ccccc3nc-2cc1Nc1ccc(C)nc1` [TBI-80C, 5-(3-Chlorophenyl)-3-(1,3-dimethoxyisopropyl)imino-2-(6-methyl-3-pyridyl)amino-3,5-dihydrophenazine]: the MIC turned out to be 0.327 µg/mL (≈ 0.636 µM).

Regarding `COC1CCC(/N=c2\cc3n(-c4ccccc4)c4ccccc4nc-3cc2Nc2cccnc2)CC1` (stereo not drawn) [TBI-059, 5-Phenyl-3-(4-methoxycyclohexyl)imino-2-(3-pyridyl)amino-3,5-dihydrophenazine], the MIC is 0.125 µg/mL (≈ 0.263 µM). For the compound `COC1CCC(/N=c2\cc3n(-c4ccc(F)cc4)c4ccccc4nc-3cc2Nc2ccc(C)nc2)CC1` (stereo not drawn) [TBI-1001, 5-(4-Fluorophenyl)-3-(4-methoxycyclohexyl)imino-2-(6-methyl-3-pyridyl)amino-3,5-dihydrophenazine], the MIC stood at 0.06 µg/mL (≈ 0.118 µM).

As to `COc1ccc(Nc2cc3nc4ccccc4n(-c4ccccc4)c-3c/c2=N\C2CCCCC2)cn1` [TBI-513, 5-Phenyl-3-cyclohexylimino-2-(6-methoxy-3-pyridyl)amino-3,5-dihydrophenazine], the MIC was 0.244 µg/mL (≈ 0.513 µM). Same read-out and setting: with `COc1ncccc1Nc1cc2nc3ccccc3n(-c3ccc(NC(C)=O)cc3)c-2c/c1=N\C1CC1` [TBI-1221, 5-(4-Acetamidophenyl)-3-cyclopropylimino-2-(2-methoxy-3-pyridyl)amino-3,5-dihydrophenazine] the figure was 0.9 µg/mL (≈ 1.83 µM); with `Cc1ccc(-n2c3c/c(=N\C4CCCCC4)c(Nc4cncc(C)c4)cc-3nc3ccccc32)cc1` [TBI-329, 5-(4-Methylphenyl)-3-cyclohexylimino-2-(5-methyl-3-pyridyl)amino-3,5-dihydrophenazine], 0.092 µg/mL (≈ 0.194 µM). Take `Clc1ccc(-n2c3c/c(=N\C4CCCCC4)c(Nc4cccnc4)cc-3nc3ccccc32)cc1Cl` [TBI-350, 5-(3,4-Dichlorophenyl)-3-cyclohexylimino-2-(3-pyridyl)amino-3,5-dihydrophenazine]: the MIC worked out at 0.031 µg/mL (≈ 0.0603 µM). As to `COCC(COC)/N=c1\cc2n(-c3ccc(C)cc3)c3ccccc3nc-2cc1Nc1ccc(C)nc1` [TBI-374, 5-(4-Methylphenyl)-3-(1,3-dimethoxyisopropyl)imino-2-(6-methyl-3-pyridyl)amino-3,5-dihydrophenazine], the MIC amounted to 0.125 µg/mL (≈ 0.253 µM). On to `COc1ncccc1Nc1cc2nc3ccccc3n(-c3cccc(OC(F)(F)F)c3)c-2c/c1=N\C1CCCCC1` [TBI-1040, 5-(3-Trifluoromethoxyphenyl)-3-cyclohexylimino-2-(2-methoxy-3-pyridyl)amino-3,5-dihydrophenazine], for which the MIC was 0.086 µg/mL (≈ 0.154 µM). Regarding `Cc1ccc(Nc2cc3nc4ccccc4n(-c4ccc(Cl)c(Cl)c4)c-3c/c2=N\C2CC2)cn1` [TBI-944, 5-(3,4-Dichlorophenyl)-3-cyclopropylimino-2-(6-methyl-3-pyridyl)amino-3,5-dihydrophenazine], the MIC worked out at 0.06 µg/mL (≈ 0.123 µM). Consider `c1ccc(-n2c3c/c(=N\C4CCOCC4)c(Nc4cccnc4)cc-3nc3ccccc32)cc1` [TBI-058, 5-Phenyl-3-(4-tetrahydropyranyl)imino-2-(3-pyridyl)amino-3,5-dihydrophenazine], for which the MIC was 0.06 µg/mL (≈ 0.134 µM). On to `COc1ccc(Nc2cc3nc4ccccc4n(-c4ccc(C(F)(F)F)cc4)c-3c/c2=N\C2CC2)cn1` [TBI-736, 5-(4-Trifluoromethylphenyl)-3-cyclopropylimino-2-(6-methoxy-3-pyridyl)amino-3,5-dihydrophenazine], for which the MIC was 0.224 µg/mL (≈ 0.447 µM).

`COCC(COC)/N=c1\cc2n(-c3ccc(F)c(F)c3)c3ccccc3nc-2cc1Nc1cccnc1` [TBI-528, 5-(3,4-Difluorophenyl)-3-(1,3-dimethoxyisopropyl)imino-2-(3-pyridyl)amino-3,5-dihydrophenazine]: the MIC was determined as 0.216 µg/mL (≈ 0.431 µM).

`COc1ncccc1Nc1cc2nc3ccc(F)cc3n(-c3ccc(OC(F)(F)F)cc3)c-2c/c1=N\C1CCOCC1` [TBI-855]: the MIC came to 0.193 µg/mL (≈ 0.333 µM).

In the case of `COc1ncccc1Nc1cc2nc3ccccc3n(-c3ccc(F)cc3)c-2c/c1=N\C1CCC(O)CC1` (stereo not drawn) [TBI-1008, 5-(4-Fluorophenyl)-3-(4-hydroxycyclohexyl)imino-2-(2-methoxy-3-pyridyl)amino-3,5-dihydrophenazine], the MIC was found to be 0.248 µg/mL (≈ 0.487 µM).

`Cc1cncc(Nc2cc3nc4ccccc4n(-c4ccc(C(F)(F)F)cc4)c-3c/c2=N\C2CCOCC2)c1` [TBI-723, 5-(4-Trifluoromethylphenyl)-3-(4-tetrahydropyranyl)imino-2-(5-methyl-3-pyridyl)amino-3,5-dihydrophenazine]: the MIC is 0.041 µg/mL (≈ 0.0774 µM). In the case of `COC1CCC(/N=c2\cc3n(-c4ccc(F)cc4)c4ccccc4nc-3cc2Nc2cncc(C)c2)CC1` (stereo not drawn) [TBI-1026], the MIC amounted to 0.121 µg/mL (≈ 0.238 µM). `COc1ncccc1Nc1cc2nc3ccccc3n(-c3ccc(C)cc3)c-2c/c1=N\C1CCCCC1` [TBI-331]: the MIC is 0.047 µg/mL (≈ 0.096 µM). For `Cc1cncc(Nc2cc3nc4ccccc4n(-c4ccc(F)cc4)c-3c/c2=N\C2CCCCC2)c1` [TBI-1029, 5-(4-Fluorophenyl)-3-cyclohexylimino-2-(5-methyl-3-pyridyl)amino-3,5-dihydrophenazine], the MIC is 0.027 µg/mL (≈ 0.0565 µM). Regarding `Cc1ccc(Nc2cc3nc4cc(F)ccc4n(-c4ccc(OC(F)(F)F)cc4)c-3c/c2=N\C2CC2)cn1` [TBI-864, 8-Fluoro-5-(4-trifluoromethoxyphenyl)-3-cyclopropylimino-2-(6-methyl-3-pyridyl)amino-3,5-dihydrophenazine], the MIC stood at 0.057 µg/mL (≈ 0.11 µM).
